Paper PMC8805583, “Discovery of Herbacetin as a Novel SGK1 Inhibitor to Alleviate Myocardial Hypertrophy” (Advanced Science, 2021)
Each block holds one molecule with its values, some of them ahead of it.

Legend:
SGK1 = target: T1, SGK1 (Homo sapiens, UniProt O00141); assay: Mass spectrometry-based SGK1 kinase inhibitory assay (LC/MS of phosphorylated […]); format: biochemical; conditions: for reduction in SGK1 inhibitory activity, absence of -OH at C-8: compared with HBT
T1 sequence (O00141 1-431): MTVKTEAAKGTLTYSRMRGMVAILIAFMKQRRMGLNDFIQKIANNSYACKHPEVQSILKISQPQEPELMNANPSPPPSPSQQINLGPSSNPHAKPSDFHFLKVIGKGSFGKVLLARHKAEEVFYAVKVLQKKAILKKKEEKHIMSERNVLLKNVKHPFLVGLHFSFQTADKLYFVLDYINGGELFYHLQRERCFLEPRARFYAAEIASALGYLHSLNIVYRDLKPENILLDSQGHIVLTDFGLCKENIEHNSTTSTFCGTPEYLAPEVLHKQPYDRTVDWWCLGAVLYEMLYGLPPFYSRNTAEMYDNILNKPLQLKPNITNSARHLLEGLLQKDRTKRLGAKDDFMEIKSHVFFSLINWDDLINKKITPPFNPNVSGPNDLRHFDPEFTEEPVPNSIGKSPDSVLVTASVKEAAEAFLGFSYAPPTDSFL
Description: To identify active compounds with SGK1 inhibitory activity from Ext.R, a novel mass‐spectrometry based kinase inhibitory assay was developed. A polypeptide sequence ([…], m/z: 618.6) derived from glycogen Synthase Kinase‐3(GSK3), a known substrate of SGK1, was optimized and synthesized. We subsequently used liquid chromatography coupled with mass spectrometry (LC/MS) to detect and quantify its phosphorylation level ([…](p)FAE, m/z:658.7) (Figure 3A).^[ [26] ^] Basal level SGK1 was supplemented to each well, and the peak area of phosphorylation was measured in the presence or absence of testing compounds. […] After investigating the major chemical constituents in Ext.R (Table S3, Supporting Information), a set of compounds in Ext.R were subsequently screened for their impacts on SGK1 activity. […] The direct interaction between HBT and SGK1 was further verified by temperature‐ and dose‐dependent cellular thermal shift assays (Figure 3E,F). We further performed a direct binding assay of HBT to SGK1 by KINOMEscan assay (Eurofins Discovery).
Synthesis of […] was prepared by Shanghai Sangong Biotech. In order to ensure the phosphorylation reaction of SGK1, SGK1 (0.25 µg mL^−1) was added to kinase buffer (25 mmol Tris [pH 7.5], 5 mmol β‐glycerolphosphate, 2 mmol DTT, 10 mmol MgCl2) with the substrate peptide […] (25 µmol) and ATP (200 µmol) and incubated for 1 h at 30 °C in the presence or absence of inhibitors. A concentration‐dependent assay for SGK1 at different concentrations (0.05, 0.1, 0.2, 0.25, and 0.3 µg mL^−1) was performed. Reactions were terminated by the addition of methyl alcohol with 0.1% trifluoroacetic acid (TFA), and supernatants were analyzed by the Agilent 1100 LC system (Agilent Technologies, USA) and a 1946D single quadrupole mass spectrometer. The acquisition parameters for LC/MS were set for positive ionization mode and selected ion monitoring (SIM) m/z values of 618.6 and 658.7 for the substrate peptide and product peptide respectively. Chromatographic separation was performed by a reversed‐phase ZORBAX SB‐C18 analytical column. The mobile phase included water containing 0.1% v/v TFA (A) and acetonitrile containing 0.1% v/v TFA (B). The flow rate was 0.6 mL min^−1. A gradient program was carried out according to the following profile: 0 min, 13% B; 15 min, 28% B; 16 min, 100% B. The constituents of Ext.R were screened by the assay to evaluate their inhibitory effects on SGK1 activity. A minimum of three replicates of each sample were analyzed and averaged together. Inhibition of SGK1 was calculated by the following equation (1) Inhibitionrate%=PC−PS/PC P C and P S represented the peak area of product peptide in the control group without test compounds and the tested sample group with various test compounds, respectively.

[1] = system: SGK1-dependent phosphorylation of NDRG1; parameters: method as in PMID 21865856; conditions: cited from earlier work
[2] = MS-based kinase inhibitory assay

SMILES: O=c1c(O)c(-c2ccc(O)cc2)oc2cc(O)cc(O)c12 [A1]
reduction in SGK1 inhibitory activity, absence of -OH at C-8 (SGK1): greater than 10 fold
IC50 (SGK1; in figure, n = 3): 11.3 µM

SMILES: O=c1c(O)c(-c2ccc(O)cc2)oc2c(O)c(O)ccc12 [A2, 3,7,8‐trihydroxy‐2‐(4‐hydroxyphenyl) chromen‐4‐one]
IC50 (SGK1; [2]): 0.307 µM

SMILES: O=c1cc(-c2ccc(O)cc2)oc2c(O)c(O)cc(O)c12 [A3]
reduction in SGK1 inhibitory activity, absence of -OH at C-3 (SGK1): significant reduction

SMILES: CCc1c(C(=O)NNC(=O)C(O)c2cc(F)cc(F)c2)ccc(O)c1C (stereo not drawn) [EMD638683, reference compound]
IC50 [1]: 3.35 µM

Second part, the molecule after the results:

reduction in SGK1 inhibitory activity, absence of -OH at C-8 (SGK1): greater than 10 fold
IC50 (SGK1; in figure, n = 3): 11.6 µM
SMILES: O=c1c(O)c(-c2ccc(O)cc2)oc2cc(O)ccc12 [A4]

reduction in SGK1 inhibitory activity, absence of -OH at C-3 (SGK1): significant reduction
SMILES: O=c1cc(-c2ccc(O)cc2)oc2c(O)c(O)ccc12 [A5]

IC50 (SGK1; [2]): 8.04 µM
SMILES: O=C(O)/C=C/c1ccc(O)cc1 [p-coumaric acid]
